Results: patent publication US8183287B2, “Pharmaceutical formulations and compositions of a selective antagonist of either CXCR2 or both CXCR1 and CXCR2 and methods of using the same for treating inflammatory disorders” (Schering Corporation, priority 2006, dated 2012)
Read-outs that look alike come from different tables or passages of the source.

What was measured:
[1] = system: neutrophil recruitment to the lungs; assay: neutrophil recruitment to the lungs in response to challenge, oral dosing; format: in vivo; conditions: orally administered
Source text: (§1) WO 02/083624 describes this compound (as Examples 360.31 and 405), process of making the same, as well as treatment of chemokine-related diseases and cancer using the same. Likewise, WO 03/080053 describes the treatment of chemokine-related diseases using this compound.

[2] = system: neutrophil recruitment to the pleural cavities; assay: neutrophil recruitment to the pleural cavities in response to challenge, oral dosing; format: in vivo; conditions: orally administered
Source text: as §1

[3] = clinical study (iii): multiple-dose oral pharmacokinetics, Formulation 1 capsules; format: in vivo, human; conditions: for AUC(0-t): read-out: AUC (0-24 hr) Mean; for Tmax: read-out: Tmax Median
[4] = both sexes, human, plasma, oral, 10 mg, multiple-dose 10 mg, Day 1
[5] = both sexes, human, plasma, oral, 10 mg, multiple-dose 10 mg, Day 14
[6] = both sexes, human, plasma, oral, 30 mg, multiple-dose 30 mg, Day 1
[7] = both sexes, human, plasma, oral, 30 mg, multiple-dose 30 mg, Day 14
[8] = both sexes, human, plasma, oral, 50 mg, multiple-dose 50 mg, Day 1
[9] = both sexes, human, plasma, oral, 50 mg, multiple-dose 50 mg, Day 14

Compound: CC[C@@H](Nc1c(Nc2cccc(C(=O)N(C)C)c2O)c(=O)c1=O)c1ccc(C)o1 [Compound I]
- neutrophil recruitment to the lungs ([1]; mice): effectively blocks
- neutrophil recruitment to the lungs ([1]; monkeys): effectively blocks
- neutrophil recruitment to the lungs ([1]; rats): effectively blocks
- neutrophil recruitment to the pleural cavities ([2]; mice): effectively blocks
- neutrophil recruitment to the pleural cavities ([2]; rats): effectively blocks
- Cmax [3, 4]: 76 ng/mL
- AUC(0-t) [3, 4]: 137 ng·h/mL
- Tmax [3, 4]: 30 min
- Cmax [3, 5]: 78.1 ng/mL
- AUC(0-t) [3, 5]: 156 ng·h/mL
- Tmax [3, 5]: 30 min
- Cmax [3, 6]: 173 ng/mL
- AUC(0-t) [3, 6]: 397 ng·h/mL
- Tmax [3, 6]: 30 min
- Cmax [3, 7]: 159 ng/mL
- AUC(0-t) [3, 7]: 414 ng·h/mL
- Tmax [3, 7]: 30 min
- Cmax [3, 8]: 239 ng/mL
- AUC(0-t) [3, 8]: 681 ng·h/mL
- Tmax [3, 8]: 45 min
- Cmax [3, 9]: 279 ng/mL
- AUC(0-t) [3, 9]: 825 ng·h/mL
- Tmax [3, 9]: 30 min
- half-life ([3]; both sexes, human, plasma, oral, multiple-dose 50 mg, Day 14, n = 7, read-out: t1/2 Mean (converted)): 828 min
- steady state achieved by ([3]; multiple doses): ≤ 11 days
